Data reported in ChEMBL document CHEMBL1201862, “PubChem BioAssay data set” (2004).
Where a name gives a salt, the structure may show the parent alone.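 The compound was tested at five concentrations on cells cultured in 96-well plates, with a 48-hour exposure period. Here, GI50 denotes the concentration required for 50% inhibition of growth.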 Calls of active or inactive are those of the source. Rule as the data show it: active = GI50 up to about 1.1 µM and inactive = higher.

Tests used:
Assay in all cases: growth of human tumour cells (NCI), 48 h
KM-20L2 = tested on: KM-20L2
DLD-1 = tested on: DLD-1
DMS-273 = tested on: DMS-273
XF498 = tested on: XF498
M19-MEL = tested on: M19-MEL
RXF 631 = tested on: RXF 631
LXFL 529 = tested on: LXFL 529
DMS-114 = tested on: DMS-114
HOP-18 = tested on: HOP-18

Row | SMILES | GI50 (KM-20L2) | GI50 (DLD-1) | GI50 (DMS-273) | GI50 (XF498) | GI50 (M19-MEL) | GI50 (RXF 631) | GI50 (LXFL 529) | GI50 (DMS-114) | GI50 (HOP-18)
1 | CNC(=O)CN(CC(N)=O)C(N)=O | > 100 µM (inactive) | > 100 µM (inactive) | > 100 µM (inactive) | > 100 µM (inactive) | > 100 µM (inactive) | > 100 µM (inactive) | > 100 µM (inactive) |  | 
2 | CCOC(=O)C12CN(C34CC5CC(CC(C5)C3)C4)CC(C(=O)OCC)(C1=O)C(c1ccccc1)OC2c1ccccc1 (stereo not given) | > 100 µM (inactive) | > 100 µM (inactive) | > 100 µM (inactive) | > 100 µM (inactive) | > 100 µM (inactive) |  | 31.3 µM (inactive) | 52.2 µM (inactive) | 
3 | C[C@H](O)CCC(=O)c1ccoc1 | > 100 µM (inactive) | > 100 µM (inactive) | > 100 µM (inactive) |  | > 100 µM (inactive) |  | > 100 µM (inactive) | > 100 µM (inactive) | 75 µM (inactive)
4 | O=C1C(CN2CCOCC2)CCCC1CN1CCOCC1 (stereo not given) | 6.43 µM (inactive) | 0.67 µM (active) | 8.11 µM (inactive) |  | 7.11 µM (inactive) | 10.5 µM (inactive) | 1.53 µM (inactive) | 5.61 µM (inactive) | 1.81 µM (inactive)
5 | CN(C)CCCN1CCc2c([nH]c3ccccc23)C1c1cccnc1 (stereo not given) | > 100 µM (inactive) | > 100 µM (inactive) | > 100 µM (inactive) | > 100 µM (inactive) | > 100 µM (inactive) | > 100 µM (inactive) | > 100 µM (inactive) | > 100 µM (inactive) | 
6 | CCCCN(CCCC)C(=Nc1ccccc1)N(CCCC)CCCC | 0.851 µM (active) | 6.38 µM (inactive) | 4.61 µM (inactive) | 2.05 µM (inactive) | 8.39 µM (inactive) | 10.5 µM (inactive) | 5.36 µM (inactive) | 1.59 µM (inactive) | 1.76 µM (inactive)
7 | CC(C)OCN/C(N)=N\C#N | > 100 µM (inactive) | 59.7 µM (inactive) | 49.2 µM (inactive) | > 100 µM (inactive) | > 100 µM (inactive) | > 100 µM (inactive) | > 100 µM (inactive) | > 100 µM (inactive) | > 100 µM (inactive)
8 | Nc1n/c(=N\c2ccccc2)ss1 | > 100 µM (inactive) | > 100 µM (inactive) | > 100 µM (inactive) | > 100 µM (inactive) | 99.5 µM (inactive) | > 100 µM (inactive) | > 100 µM (inactive) | > 100 µM (inactive) | > 100 µM (inactive)
9 | NS(=O)(=O)c1ccccc1C(=O)N/N=C(\c1nc2ccc([N+](=O)[O-])cc2[nH]c1=O)C(O)c1ccc([N+](=O)[O-])cc1 (stereo not given) | 46.2 µM (inactive) | > 100 µM (inactive) |  | > 100 µM (inactive) | > 100 µM (inactive) |  | > 100 µM (inactive) |  | > 100 µM (inactive)
10 | O=C(c1ccccc1)C1S(=O)(=O)OCCOS1(=O)=O |  | > 100 µM (inactive) | > 100 µM (inactive) | > 100 µM (inactive) | > 100 µM (inactive) | > 100 µM (inactive) | > 100 µM (inactive) | > 100 µM (inactive) | 
11 | Cc1ccc(NC(=O)OCC(COc2ccc(Cl)cc2Cl)OC(=O)Nc2ccc(C)cc2)cc1 (stereo not given) | > 100 µM (inactive) | > 100 µM (inactive) | > 100 µM (inactive) |  | > 100 µM (inactive) |  | 81.5 µM (inactive) | > 100 µM (inactive) | 69.5 µM (inactive)
12 | CCOC(=O)CC(=O)Sc1ccccc1 | 21.2 µM (inactive) | 20 µM (inactive) | 20.7 µM (inactive) | 34.4 µM (inactive) | 17.9 µM (inactive) |  |  | 14.4 µM (inactive) | > 100 µM (inactive)
13 | COc1ccccc1NC(=O)CC(=O)n1nc(C)c(/N=N/c2ccccc2C(=O)O)c1C | > 100 µM (inactive) | > 100 µM (inactive) | > 100 µM (inactive) | > 100 µM (inactive) | > 100 µM (inactive) |  | > 100 µM (inactive) | > 100 µM (inactive) | 
14 | Cc1ccc(/C=N/NS(=O)(=O)c2ccccc2)cc1C | > 100 µM (inactive) | > 100 µM (inactive) | > 100 µM (inactive) | 87.3 µM (inactive) | > 100 µM (inactive) |  | 36.5 µM (inactive) | 46.1 µM (inactive) | > 100 µM (inactive)
15 | CC(=O)OCCC(O[Si](c1ccccc1)(c1ccccc1)C(C)(C)C)C(C)(C)O (stereo not given) | 32.3 µM (inactive) |  | 27 µM (inactive) | 29.4 µM (inactive) | 23.1 µM (inactive) | 34.3 µM (inactive) | 42.7 µM (inactive) | 19.9 µM (inactive) | 25.2 µM (inactive)
16 | O=C1C2C=CC(n3[nH]c(=O)n(Cc4ccccc4)c3=O)CC2C(=O)N1c1ccc(Br)cc1 (stereo not given) | > 100 µM (inactive) | > 100 µM (inactive) | > 100 µM (inactive) |  | > 100 µM (inactive) |  | > 100 µM (inactive) | > 100 µM (inactive) | > 100 µM (inactive)
17 | COC(=O)/C=C/c1c(CC=C(C)C)ncn1C | 16.7 µM (inactive) | 29.8 µM (inactive) | 8.38 µM (inactive) | 41.3 µM (inactive) | 18.8 µM (inactive) | 59 µM (inactive) | 55.1 µM (inactive) | 5.38 µM (inactive) | > 100 µM (inactive)
18 | O=C(CC1(O)C(=O)Nc2ccccc21)c1ccc(Cl)cc1Cl (stereo not given) | > 100 µM (inactive) | > 100 µM (inactive) | > 100 µM (inactive) | > 100 µM (inactive) | > 100 µM (inactive) | > 100 µM (inactive) | > 100 µM (inactive) | > 100 µM (inactive) | 
19 | COC(=O)c1nc(NC#N)nc(O)c1C | > 100 µM (inactive) | > 100 µM (inactive) | > 69.3 µM (inactive) |  | > 100 µM (inactive) | > 100 µM (inactive) | > 64.9 µM (inactive) | > 100 µM (inactive) | > 100 µM (inactive)
20 | N#CC(C(=O)CCC(=O)Nc1ccc(Cl)c(Cl)c1)c1ccc(Cl)cc1 (stereo not given) | 15 µM (inactive) | 55.5 µM (inactive) | 39.3 µM (inactive) |  | 82.2 µM (inactive) | 90.6 µM (inactive) | 21.3 µM (inactive) | 75.3 µM (inactive) | > 100 µM (inactive)
21 | CCOc1ccc(NC(=O)C2=C(C)NC(C)=C(C(=O)Nc3ccc(OCC)cc3)C2c2ccc([N+](=O)[O-])cc2)cc1 | 20 µM (inactive) | 25.9 µM (inactive) |  | 25.3 µM (inactive) | 26.2 µM (inactive) |  | 22.1 µM (inactive) | 18.4 µM (inactive) | 
22 | O=C(Nc1ccccc1-c1nn(C(=S)Nc2ccccc2)c(=S)n(C(=S)Nc2ccccc2)c1=O)C(F)(F)F | 36.2 µM (inactive) | 24.8 µM (inactive) | 27.4 µM (inactive) | 23.1 µM (inactive) | 28.2 µM (inactive) |  | 17.1 µM (inactive) | 9.38 µM (inactive) | 30.1 µM (inactive)
23 | O=c1[nH]c(=O)n(C2OC(CO)C(O)C2O)cc1OCC(F)(F)F (stereo not given) | > 100 µM (inactive) | > 100 µM (inactive) | > 100 µM (inactive) | > 100 µM (inactive) | > 100 µM (inactive) |  | > 100 µM (inactive) | > 100 µM (inactive) | > 100 µM (inactive)
24 | C[C@@H](NC1CCCC[C@@H]1O)c1ccccc1 (stereo not given in full) | > 100 µM (inactive) | > 100 µM (inactive) | > 100 µM (inactive) | > 100 µM (inactive) | > 100 µM (inactive) |  | > 100 µM (inactive) |  | > 100 µM (inactive)
25 | CC(=O)OC1CC[C@@]2(C)C(CC[C@]3(C)C2CC=C2[C@@H]4C(C)[C@H](C)CCC4(C)CCC23C)[C@@]1(C)C(=O)O (stereo not given in full) | 16.2 µM (inactive) | 18.7 µM (inactive) | 21.2 µM (inactive) | 16.9 µM (inactive) | 23.1 µM (inactive) | 23.9 µM (inactive) | 17.3 µM (inactive) | 18.4 µM (inactive) | 16.3 µM (inactive)
26 | CC/C=C/c1cc2cc[nH]c2c2c1C(C)C[C@@H]2C (stereo not given in full) |  | 34.2 µM (inactive) | > 10 µM (inactive) |  | 27.5 µM (inactive) |  | 18.3 µM (inactive) | 20.6 µM (inactive) | 17.9 µM (inactive)
27 | CC(=O)OC(C[C@H](C)[C@@H]1CC[C@]2(C)C3=CCC4C(C)(C)C(=O)CC[C@]4(C)C3CCC12C)C1OC1(C)C (stereo not given in full) | 25.5 µM (inactive) | 29.7 µM (inactive) | 17.1 µM (inactive) | 18.5 µM (inactive) | 31.2 µM (inactive) |  | 22.4 µM (inactive) | 32.5 µM (inactive) | > 100 µM (inactive)
28 | C[C@]12CC[C@@H]3c4ccc(O)cc4CC[C@H]3[C@@H]1CC[C@@H]2OC(=O)CCC1CCCC1 [ESTRADIOL CYPIONATE] | 17.7 µM (inactive) | 33 µM (inactive) | 14.3 µM (inactive) | 18.9 µM (inactive) | 27.4 µM (inactive) |  | 17.5 µM (inactive) | 30.8 µM (inactive) | 20.3 µM (inactive)
29 | N[C@@H](Cc1ccc(N(CCCl)CCCl)cc1)C(=O)O [MELPHALAN HYDROCHLORIDE] | 76.2 µM (inactive) | 47 µM (inactive) | 9.71 µM (inactive) |  | 39.6 µM (inactive) |  | 49.3 µM (inactive) | 20.2 µM (inactive) | 
